{
  "source": "patent US20220396567A1",
  "about": "“SUBSTITUTED PYRIMIDINE FOR THE TREATMENT AND PROPHYLAXIS OF HEPATITIS B VIRUS INFECTION” (Hoffmann-La Roche Inc., priority 2019, published 2022)",
  "system": "HBV",
  "test": "Cryopreserved primary human hepatocytes (PHH) HBV infection assay, extracellular HBsAg by CLIA",
  "assay_type": "cell-based",
  "details": "Hepatitis B virus, Hepatocyte, 216 h; HBV-infected cryopreserved PHH; extracellular HBsAg at 9 days post-compound treatment; 4 parameter logistic curve fit",
  "experimental": "This assay is used to confirm the anti-HBV effect of the compounds in HBV PHH infection assay. Cryopreserved PHH (BioreclamationIVT, Lot YJM) was thawed at 37° C. and gently transferred into pre-warmed InVitroGRO HT medium (BioreclamationIVT, Cat. S03317). The mixture was centrifuged at 70 relative centrifugal force (RCF) for 3 min at RT, and the supernatant was discarded. Pre-warmed InVitroGRO CP medium (BioreclamationIVT, Cat #S03316) was added to the cell pellet to gently re-suspend cells. The cells were seeded at the density of 5.8×10^4 cells per well to collagen I coated 96-well plate (Gibco, Cat. A1142803) with the InVitroGRO CP medium. All plates were incubated at 37° C. with 5% CO2 and 85% humidity.\nAt 20 hrs after plating, the medium was changed to PHH culture medium (Dulbecco's Modified Eagle Medium (DMEM)/F12 (1:1) (Gibco, Cat. 11320-033), 10% fetal bovine serum (Gibco Cat. 10099141), 100 U/mL penicillin, 100 μg/mL streptomycin (Gibco, Cat. 151401-122), […] (Invitrogen Cat. PHG0311L), 20 ng/mL dexamethasone (Sigma, Cat. D4902) and 250 ng/mL human recombinant insulin (Gibco, Cat. 12585-014)). And the cells were incubated at 37° C. with 5% CO2 and 85% humidity for 4 hrs. The medium was then changed to pre-warmed PHH culture medium containing 4% polyethylene glycol (PEG) MW8000 (Sigma, Cat. P1458-50 ML) and 1% DMSO (Sigma, Cat. D2650). 5.8×10^6 genomic equivalents of HBV were added into the medium.\nAt 24 hrs post-infection, the cells were gently washed with PBS and refreshed with PHH culture medium supplemented with 1% DMSO, and 0.25 mg/mL Matrix gel (Corning, Cat. 356237) at 200 μL per well. All plates were immediately placed in at 37° C. CO2 incubator.\n24 hrs later, serial dilutions of compounds made with DMSO were further diluted with the same culture medium (PHH culture medium supplemented with 1% DMSO and 0.25 mg/mL Matrix gel as described above) before they were added to the cells to reach desired final compound concentrations and 1% DMSO concentration. The medium containing the compounds were refreshed every three days.\nAt 9 days post-compound treatment, extracellular HBsAg level were measured with Chemiluminescence Immuno Assay (CLIA) kit (Autobio, HBsAg Quantitative CLIA).\nHBsAg IC50 was derived from the dose-response curve using 4 parameter logistic curve fit method. The compounds of formula (I) have HBsAg IC50<20 μM, particularly <1 μM.",
  "data": [
    {"smiles": "N#Cc1c(NCC2CCC(F)(F)C2)nc(N)nc1-c1ccco1", "note": "(stereo not drawn) [Example 8, 2-amino-4-[(3,3-difluorocyclopentyl)methylamino]-6-(2-furyl)pyrimidine-5-carbonitrile]", "values": [
      {"measurement": "IC50", "result": 10.2, "unit": "µM"}
    ]},
    {"smiles": "N#Cc1c(NCC(F)Cc2ccccc2Cl)nc(N)nc1-c1ccco1", "note": "(stereo not drawn) [Example 4, 2-amino-4-[[3-(2-chlorophenyl)-2-fluoro-propyl]amino]-6-(2-furyl)pyrimidine-5-carbonitrile]", "values": [
      {"measurement": "IC50", "result": 11.4, "unit": "µM"}
    ]},
    {"smiles": "COc1cccc(CN(C)c2nc(N)nc(-c3ccco3)c2C#N)c1", "note": "[Example 6]", "values": [
      {"measurement": "IC50", "result": 10.1, "unit": "µM"}
    ]},
    {"smiles": "COCCNc1nc(NCc2cccc(Cl)c2)c(C(=O)O)c(-c2ccco2)n1", "note": "[Example 59, 4-[(3-chlorophenyl)methylamino]-6-(2-furyl)-2-(2-methoxyethylamino)pyrimidine-5-carboxylic Acid]", "values": [
      {"measurement": "IC50", "result": 3.71, "unit": "µM"}
    ]},
    {"smiles": "COc1nc(NCc2cccc(C(F)(F)F)c2)c(C#N)c(-c2ccco2)n1", "note": "[Example 17, 4-(2-furyl)-2-methoxy-6-[[3-(trifluoromethyl)phenyl]methylamino]pyrimidine-5-carbonitrile]", "values": [
      {"measurement": "IC50", "result": 3.35, "unit": "µM"}
    ]},
    {"smiles": "CC(Nc1nc(N)nc(-c2ccco2)c1C#N)c1cccc(C(F)(F)F)c1", "note": "(stereo not drawn) [Example 5, 2-amino-4-(2-furyl)-6-[1-[3-(trifluoromethyl)phenyl]ethylamino]pyrimidine-5-carbonitrile]", "values": [
      {"measurement": "IC50", "result": 0.47, "unit": "µM"}
    ]},
    {"smiles": "N#Cc1c(NCC2(c3ccccc3)CCCC2)ncnc1-c1ccco1", "note": "[Example 30, 4-(2-furyl)-6-[(1-phenylcyclopentyl)methylamino]pyrimidine-5-carbonitrile]", "values": [
      {"measurement": "IC50", "result": 9.06, "unit": "µM"}
    ]},
    {"smiles": "CCOC(=O)c1c(NCc2cccc(C(F)(F)F)c2)nc(NCC(C)C)nc1-c1ccco1", "note": "[Example 49, Ethyl 4-(2-furyl)-2-(isobutylamino)-6-[[3-(trifluoromethyl)phenyl]methylamino]pyrimidine-5-carboxylate]", "values": [
      {"measurement": "IC50", "result": 5.35, "unit": "µM"}
    ]},
    {"smiles": "CN(C)c1nc(NCc2cccc(C(F)(F)F)c2)c(C#N)c(-c2ccco2)n1", "note": "[Example 16, 2-(dimethylamino)-4-(2-furyl)-6-[[3-(trifluoromethyl)phenyl]methylamino]pyrimidine-5-carbonitrile]", "values": [
      {"measurement": "IC50", "result": 6.75, "unit": "µM"}
    ]},
    {"smiles": "CC(C)(C)OC(=O)N1CCN(C(=O)c2c(NCc3cccc(C(F)(F)F)c3)nc(N)nc2-c2ccco2)CC1", "note": "[Example 56, tert-butyl4-[2-amino-4-(2-furyl)-6-[[3-(trifluoromethyl)phenyl]methylamino]pyrimidine-5-carbonyl]piperazine-1-carboxylate]", "values": [
      {"measurement": "IC50", "result": 9.66, "unit": "µM"}
    ]},
    {"smiles": "N#Cc1c(NCCc2ccccc2)ncnc1-c1ccco1", "note": "[Example 28, 4-(2-furyl)-6-(2-phenylethylamino)pyrimidine-5-carbonitrile]", "values": [
      {"measurement": "IC50", "result": 0.42, "unit": "µM"}
    ]},
    {"smiles": "CCOC(=O)c1c(NCc2cccc(C(F)(F)F)c2)nc(C)nc1-c1ccco1", "note": "[Example 61, Ethyl 4-(2-furyl)-2-methyl-6-[[3-(trifluoromethyl)phenyl]methylamino]pyrimidine-5-carboxylate]", "values": [
      {"measurement": "IC50", "result": 7.38, "unit": "µM"}
    ]},
    {"smiles": "N#Cc1c(NCC2CCCCC2)ncnc1-c1ccco1", "note": "[Example 27, 4-(cyclohexylmethylamino)-6-(2-furyl)pyrimidine-5-carbonitrile]", "values": [
      {"measurement": "IC50", "result": 6.83, "unit": "µM"}
    ]},
    {"smiles": "CN(C)c1nc(NCC2CCCC2)c(C(=O)O)c(-c2ccco2)n1", "note": "[Example 43, 4-(cyclopentylmethylamino)-2-(dimethylamino)-6-(2-furyl)pyrimidine-5-carboxylic Acid]", "values": [
      {"measurement": "IC50", "result": 5.55, "unit": "µM"}
    ]},
    {"smiles": "COCCNc1nc(NCc2cccc(C(F)(F)F)c2)c(C#N)c(-c2ccco2)n1", "note": "[Example 12, 4-(2-furyl)-2-(2-methoxyethylamino)-6-[[3-(trifluoromethyl)phenyl]methylamino]pyrimidine-5-carbonitrile]", "values": [
      {"measurement": "IC50", "result": 3.89, "unit": "µM"}
    ]},
    {"smiles": "CCOC(=O)c1c(NCc2c(Br)ccc(OC)c2OC)nc(N)nc1-c1ccco1", "note": "[Example 44, Ethyl 2-amino-4-[(6-bromo-2,3-dimethoxy-phenyl)methylamino]-6-(2-furyl)pyrimidine-5-carboxylate]", "values": [
      {"measurement": "IC50", "result": 8.06, "unit": "µM"}
    ]},
    {"smiles": "CCCCOc1nc(NCc2cccc(C(F)(F)F)c2)c(C#N)c(-c2ccco2)n1", "note": "[Example 19, 2-butoxy-4-(2-furyl)-6-[[3-(trifluoromethyl)phenyl]methylamino]pyrimidine-5-carbonitrile]", "values": [
      {"measurement": "IC50", "result": 2.42, "unit": "µM"}
    ]},
    {"smiles": "CC(C)CNc1nc(NCc2cccc(C(F)(F)F)c2)c(C(=O)O)c(-c2ccco2)n1", "note": "[Example 50, 4-(2-furyl)-2-(isobutylamino)-6-[[3-(trifluoromethyl)phenyl]methylamino]pyrimidine-5-carboxylic Acid]", "values": [
      {"measurement": "IC50", "result": 8.62, "unit": "µM"}
    ]},
    {"smiles": "Cc1nc(NCc2ccccc2)c(C#N)c(-c2ccco2)n1", "note": "[Example 23, 4-(benzylamino)-6-(2-furyl)-2-methyl-pyrimidine-5-carbonitrile]", "values": [
      {"measurement": "IC50", "result": 6.89, "unit": "µM"}
    ]},
    {"smiles": "COc1ccc(Br)c(CNc2nc(C)nc(-c3ccco3)c2C#N)c1OC", "note": "[Example 20, 4-[(6-bromo-2,3-dimethoxy-phenyl)methylamino]-6-(2-furyl)-2-methyl-pyrimidine-5-carbonitrile]", "values": [
      {"measurement": "IC50", "result": 2.66, "unit": "µM"}
    ]},
    {"smiles": "CCOC(=O)c1c(NCc2ccccc2Cl)ncnc1-c1ccco1", "note": "[Example 57, Ethyl 4-[(2-chlorophenyl)methylamino]-6-(2-furyl)pyrimidine-5-carboxylate]", "values": [
      {"measurement": "IC50", "result": 4.26, "unit": "µM"}
    ]},
    {"smiles": "Nc1nc(NCc2cccc(C(F)(F)F)c2)c(C(=O)N2CCC2)c(-c2ccco2)n1", "note": "[Example 52, [2-amino-4-(2-furyl)-6-[[3-(trifluoromethyl)phenyl]methylamino]pyrimidin-5-yl]-(azetidin-1-yl)methanone]", "values": [
      {"measurement": "IC50", "result": 7.94, "unit": "µM"}
    ]},
    {"smiles": "Nc1nc(NCC2CCCC2)c(C(=O)O)c(-c2ccco2)n1", "note": "[Example 41, 2-amino-4-(cyclopentylmethylamino)-6-(2-furyl)pyrimidine-5-carboxylic acid]", "values": [
      {"measurement": "IC50", "result": 3.24, "unit": "µM"}
    ]},
    {"smiles": "CCOc1nc(NCc2cccc(C(F)(F)F)c2)c(C#N)c(-c2ccco2)n1", "note": "[Example 18, 2-ethoxy-4-(2-furyl)-6-[[3-(trifluoromethyl)phenyl]methylamino]pyrimidine-5-carbonitrile]", "values": [
      {"measurement": "IC50", "result": 6.02, "unit": "µM"}
    ]},
    {"smiles": "CC1(C)CC(CNc2nc(N)nc(-c3ccco3)c2C#N)CC(C)(C)O1", "note": "[Example 3, 2-amino-4-(2-furyl)-6-[(2,2,6,6-tetramethyltetrahydropyran-4-yl)methylamino]pyrimidine-5-carbonitrile]", "values": [
      {"measurement": "IC50", "result": 1.67, "unit": "µM"}
    ]},
    {"smiles": "N#Cc1c(NC2CCCC2)nc(N)nc1-c1ccco1", "note": "[Example 9, 2-amino-4-(cyclopentylamino)-6-(2-furyl)pyrimidine-5-carbonitrile]", "values": [
      {"measurement": "IC50", "result": 8.68, "unit": "µM"}
    ]},
    {"smiles": "CCOC(=O)c1c(NCc2cccc(C(F)(F)F)c2)nc(SC)nc1-c1ccco1", "note": "[Example 45, Ethyl 4-(2-furyl)-2-methylsulfanyl-6-[[3-(trifluoromethyl)phenyl]methylamino]pyrimidine-5-carboxylate]", "values": [
      {"measurement": "IC50", "result": 8.16, "unit": "µM"}
    ]},
    {"smiles": "Nc1nc(NCc2cccc(C(F)(F)F)c2)c(C(=O)O)c(-c2ccco2)n1", "note": "[Example 38, 2-amino-4-(2-furyl)-6-[[3-(trifluoromethyl)phenyl]methylamino]pyrimidine-5-carboxylic Acid]", "values": [
      {"measurement": "IC50", "result": 2.49, "unit": "µM"}
    ]},
    {"smiles": "Nc1nc(NCc2cccc(C(F)(F)F)c2)c(C(=O)N2CCOCC2)c(-c2ccco2)n1", "note": "[Example 55, [2-amino-4-(2-furyl)-6-[[3-(trifluoromethyl)phenyl]methylamino]pyrimidin-5-yl]-morpholino-methanone]", "values": [
      {"measurement": "IC50", "result": 10.1, "unit": "µM"}
    ]},
    {"smiles": "CCNc1nc(NC2(c3cccc(C(F)(F)F)c3)CC2)c(C(=O)O)c(-c2ccco2)n1", "note": "[Example 60, 2-(ethylamino)-4-(2-furyl)-6-[[1-[3-(trifluoromethyl)phenyl]cyclopropyl]amino]pyrimidine-5-carboxylic Acid]", "values": [
      {"measurement": "IC50", "result": 6.5, "unit": "µM"}
    ]},
    {"smiles": "Nc1nc(NCc2cccc(C(F)(F)F)c2)c(C(=O)N2CCCCC2)c(-c2ccco2)n1", "note": "[Example 54, [2-amino-4-(2-furyl)-6-[[3-(trifluoromethyl)phenyl]methylamino]pyrimidin-5-yl]-(1-piperidyl)methanone]", "values": [
      {"measurement": "IC50", "result": 6.59, "unit": "µM"}
    ]},
    {"smiles": "Nc1nc(NCc2cccc(C(F)(F)F)c2)c(C(=O)N2CCCC2)c(-c2ccco2)n1", "note": "[Example 53, [2-amino-4-(2-furyl)-6-[[3-(trifluoromethyl)phenyl]methylamino]pyrimidin-5-yl]-pyrrolidin-1-yl-methanone]", "values": [
      {"measurement": "IC50", "result": 9.25, "unit": "µM"}
    ]},
    {"smiles": "CSc1nc(NCc2cccc(C(F)(F)F)c2)c(C#N)c(-c2ccco2)n1", "note": "[Example 11, 4-(2-furyl)-2-methylsulfanyl-6-[[3-(trifluoromethyl)phenyl]methylamino]pyrimidine-5-carbonitrile]", "values": [
      {"measurement": "IC50", "result": 2.35, "unit": "µM"}
    ]}
  ]
}
